Measurements as given in ChEMBL document CHEMBL1150992, “Synthesis and preparation of an affinity chromatography column for the purification of cytosolic phospholipase A2” (Bioorg Med Chem Lett, 1995).

Tests used:
[1] = Inhibitory activity against cPLA2 was assessed from arachidonic acid (AA) release in U937 cells; format: functional, cell-based; details: U-937
[2] = Inhibitory activity against cPLA2 was assessed from arachidonic acid (AA) release in cell free assay; format: functional

CCCc1c(OCCCOc2ccc(C(CCCc3ccccc3)SCCC(=O)O)cc2)ccc(C(C)=O)c1O (configuration not stated)
IC50 [1]: 1000 nM | IC50 [2]: 1000 nM
